According to patent US11136313B2, “Compounds, compositions, and methods for modulating CFTR” (Proteostasis Therapeutics, Inc., priority 2015, dated 2021):

What follows are compounds tested against T1, ΔF508-CFTR (Homo sapiens, UniProt P13569, DEL508-508) (assay: hBE equivalent current (Ieq) assay: AUC of equivalent chloride current after forskolin/VX-770 in primary lung epithelial cells homozygous for ΔF508). Conditions: relative to CFTR amplifier (Compound A)+VX-809 (3 uM), compound at 10 uM and Compound A at 3 uM, 24 h treatment.
T1 construct: Primary lung epithelial cells homozygous for the Cystic Fibrosis-causing ΔF508 mutation were differentiated for a minimum of 4 weeks; endogenous in cells; host or cells: primary lung epithelial cells (hBE) homozygous for ΔF508, differentiated at an air-liquid interface
T1 sequence (P13569 with tags, fused parts or gaps DEL508-508): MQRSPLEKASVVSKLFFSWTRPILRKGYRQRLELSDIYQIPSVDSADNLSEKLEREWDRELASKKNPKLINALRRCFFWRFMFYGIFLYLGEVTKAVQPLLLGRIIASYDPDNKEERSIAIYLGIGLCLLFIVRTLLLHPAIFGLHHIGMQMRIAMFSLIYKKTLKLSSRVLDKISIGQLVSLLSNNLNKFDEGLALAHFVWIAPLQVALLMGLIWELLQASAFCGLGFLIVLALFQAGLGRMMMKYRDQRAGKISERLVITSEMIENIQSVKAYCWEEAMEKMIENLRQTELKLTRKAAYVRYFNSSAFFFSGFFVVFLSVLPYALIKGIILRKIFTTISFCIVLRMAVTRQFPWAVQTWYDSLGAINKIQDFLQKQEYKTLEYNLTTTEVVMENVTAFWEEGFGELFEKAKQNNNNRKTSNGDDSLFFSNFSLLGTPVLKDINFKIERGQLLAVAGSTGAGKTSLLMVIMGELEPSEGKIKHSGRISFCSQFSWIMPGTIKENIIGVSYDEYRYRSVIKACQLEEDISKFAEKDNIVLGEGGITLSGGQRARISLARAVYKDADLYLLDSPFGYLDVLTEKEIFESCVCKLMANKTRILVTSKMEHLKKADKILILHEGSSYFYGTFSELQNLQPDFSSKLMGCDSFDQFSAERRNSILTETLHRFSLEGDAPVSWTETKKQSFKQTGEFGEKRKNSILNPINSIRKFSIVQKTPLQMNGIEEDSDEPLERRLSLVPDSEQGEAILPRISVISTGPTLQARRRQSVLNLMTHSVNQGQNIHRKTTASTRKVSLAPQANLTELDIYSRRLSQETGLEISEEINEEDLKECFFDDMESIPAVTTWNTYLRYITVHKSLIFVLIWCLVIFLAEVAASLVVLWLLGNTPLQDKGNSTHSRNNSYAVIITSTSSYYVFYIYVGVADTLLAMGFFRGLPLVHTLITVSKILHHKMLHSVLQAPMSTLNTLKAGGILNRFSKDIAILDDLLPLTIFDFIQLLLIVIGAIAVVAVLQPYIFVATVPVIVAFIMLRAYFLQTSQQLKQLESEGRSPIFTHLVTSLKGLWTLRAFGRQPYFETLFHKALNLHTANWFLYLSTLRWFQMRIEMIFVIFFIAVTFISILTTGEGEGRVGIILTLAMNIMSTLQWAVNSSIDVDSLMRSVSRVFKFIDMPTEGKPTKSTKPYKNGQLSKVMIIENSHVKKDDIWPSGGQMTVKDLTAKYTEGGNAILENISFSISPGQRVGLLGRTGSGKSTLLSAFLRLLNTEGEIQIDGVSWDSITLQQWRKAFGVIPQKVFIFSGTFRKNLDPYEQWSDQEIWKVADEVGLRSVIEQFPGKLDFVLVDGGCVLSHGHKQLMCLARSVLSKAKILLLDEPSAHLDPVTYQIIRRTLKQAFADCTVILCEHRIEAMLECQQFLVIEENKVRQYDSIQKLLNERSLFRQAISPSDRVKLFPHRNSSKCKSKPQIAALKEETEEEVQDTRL
Type: cell-based
Description: ii. hBE Equivalent Current (Ieq) Assay
Primary lung epithelial cells homozygous for the Cystic Fibrosis-causing ΔF508 mutation were differentiated for a minimum of 4 weeks in an air-liquid interface on Costar 24 well HTS filter plates prior to the equivalent current (Ieq) measurements. Cells were apically mucus-washed for 30 minutes 24 h prior to treatment with compounds. The basolateral media was removed and replaced with media containing the compound of interest diluted to its final concentration from DMSO stocks. Treated cells were incubated at 37° C. and 5% CO2 for 24 hours. At the end of the treatment period, the media was changed to the Ieq experimental solution for 2 hours before the experiment and plates are maintained in a CO2-free incubator during this period. The plates containing the cells were then placed in pre-warmed heating blocks at 36° C.±0.5 for 15 minutes before measurements are taken. The transepithelial voltage (VT) and conductance (GT) were measured using a custom 24 channel current clamp (TECC-24) with 24 well electrode manifold. The Ieq assay measurements were made following additions with standardized time periods: • 1. The baseline VT and GT values were measured for approximately 20 minutes. • 2. Benzamil was added to block ENaC for 15 minutes. • 3. Forskolin plus VX-770 were added to maximally activate ΔF508-CFTR for 27 minutes. • 4. Bumetanide was added to inhibit the NaK2Cl cotransporter and shut-off secretion of chloride.
The activity data captured was the area under the curve (AUC) for the traces of the equivalent chloride current. The AUC was collected from the time of the forskolin/VX-770 addition until the inhibition by bumetanide addition. Correction in response to compound treatment was scored as the increase in the AUC for compound-treated samples over that of vehicle-treated samples.
(+ indicates activity<50% of an CFTR amplifier (Compound A)+VX-809 (3 uM) with compound at 10 uM and Compound A at 3 uM; ++ indicates activity>50% of CFTR amplifier+VX-809 (3 uM) with compound at 10 uM and Compound A at 3 uM.
In the case of `CCc1ccc(OC(CC)c2ccccc2)c2c(C(=O)O)cc(-c3csc4ccccc34)nc12` (stereo in doubt) [Compound 185, 2-(1-Benzothiophen-3-yl)-8-ethyl-5-[(1S)-1-phenylpropoxy]quinoline-4-carboxylic acid], the Activity is reported as “++ (activity>50% of CFTR amplifier+VX-809 (3 uM) with compound at 10 uM and Compound A at 3 uM)”. With `Cc1cc(Cl)cc2c(C(=O)O)cc(-c3cc4ccccc4s3)nc12` [Compound 1] the Activity was “+ (activity<50% of an CFTR amplifier (Compound A)+VX-809 (3 uM) with compound at 10 uM and Compound A at 3 uM)”. In the case of `Cc1cc(C)c2nc(-c3nc4ccccc4s3)cc(C(=O)O)c2c1` [Compound 2, 2-(1,3-Benzothiazol-2-yl)-6,8-dimethylquinoline-4-carboxylic Acid], the Activity is reported as “+ (activity<50% of an CFTR amplifier (Compound A)+VX-809 (3 uM) with compound at 10 uM and Compound A at 3 uM)”. With `Cc1cc(C)c2nc(-c3nc4ccccc4o3)cc(C(=O)O)c2c1` [Compound 3, 2-(1,3-Benzoxazol-2-yl)-6,8-dimethylquinoline-4-carboxylic acid] the Activity was “+ (activity<50% of an CFTR amplifier (Compound A)+VX-809 (3 uM) with compound at 10 uM and Compound A at 3 uM)”. In the case of `Cc1cc(C)c2nc(-c3cc4ccccc4s3)nc(C(=O)O)c2c1` [Compound 4, 2-(1-Benzothiophen-2-yl)-6,8-dimethylquinazoline-4-carboxylic Acid], the Activity is reported as “+ (activity<50% of an CFTR amplifier (Compound A)+VX-809 (3 uM) with compound at 10 uM and Compound A at 3 uM)”. In the case of `Cc1cc(C)c2nc(-c3c(C)oc4ccccc34)cc(C(=O)O)c2c1` [Compound 5, 6,8-Dimethyl-2-(2-methyl-1-benzofuran-3-yl)quinoline-4-carboxylic acid], the Activity is reported as “+ (activity<50% of an CFTR amplifier (Compound A)+VX-809 (3 uM) with compound at 10 uM and Compound A at 3 uM)”. In the case of `Cc1cc(C)c2nc(-c3cc4ccccc4o3)cc(C(=O)O)c2c1` [Compound 6, 2-(1-Benzofuran-2-yl)-6,8-dimethylquinoline-4-carboxylic acid], the Activity is reported as “+ (activity<50% of an CFTR amplifier (Compound A)+VX-809 (3 uM) with compound at 10 uM and Compound A at 3 uM)”. For `Cc1cc(C)c2nc(-c3cc4ccccc4o3)c(C)c(C(=O)O)c2c1` [Compound 7, 2-(1-Benzofuran-2-yl)-3,6,8-trimethylquinoline-4-carboxylic acid], the Activity was “+ (activity<50% of an CFTR amplifier (Compound A)+VX-809 (3 uM) with compound at 10 uM and Compound A at 3 uM)”. In the case of `Cc1cc(C)c2nc(-c3csc4ccccc34)cc(C(=O)O)c2c1` [Compound 8, 2-(1-Benzothiophen-3-yl)-6,8-dimethylquinoline-4-carboxylic acid], the Activity is reported as “+ (activity<50% of an CFTR amplifier (Compound A)+VX-809 (3 uM) with compound at 10 uM and Compound A at 3 uM)”. For `Cc1cc(C)c2nc(-c3oc4ccccc4c3C)cc(C(=O)O)c2c1` [Compound 9, 6,8-dimethyl-2-(3-methyl-1-benzofuran-2-yl)quinoline-4-carboxylic acid], the Activity was “++ (activity>50% of CFTR amplifier+VX-809 (3 uM) with compound at 10 uM and Compound A at 3 uM)”. For `Cc1ccc(C)c2c(C(=O)O)cc(-c3cc4ccccc4o3)nc12` [Compound 10, 2-(1-Benzofuran-2-yl)-5,8-dimethylquinoline-4-carboxylic acid], the Activity was “+ (activity<50% of an CFTR amplifier (Compound A)+VX-809 (3 uM) with compound at 10 uM and Compound A at 3 uM)”. `COc1cc(C)c2nc(-c3cc4ccccc4o3)cc(C(=O)O)c2c1` [Compound 11, 2-(1-Benzofuran-2-yl)-6-methoxy-8-methylquinoline-4-carboxylic acid] was tested, and the Activity was “+ (activity<50% of an CFTR amplifier (Compound A)+VX-809 (3 uM) with compound at 10 uM and Compound A at 3 uM)”. `Cc1cc(Cl)cc2cc(C(=O)O)c(-c3cc4ccccc4o3)nc12` [Compound 12, 2-(1-Benzofuran-2-yl)-6-chloro-8-methylquinoline-3-carboxylic Acid] was tested, and the Activity was “+ (activity<50% of an CFTR amplifier (Compound A)+VX-809 (3 uM) with compound at 10 uM and Compound A at 3 uM)”. `Cc1ccc(C)c2c(C(=O)O)cc(-c3cc4ccccc4s3)nc12` [Compound 13, 2-(1-Benzothiophen-2-yl)-5,8-dimethylquinoline-4-carboxylic acid] was tested, and the Activity was “+ (activity<50% of an CFTR amplifier (Compound A)+VX-809 (3 uM) with compound at 10 uM and Compound A at 3 uM)”. For `COc1ccc(C)c2nc(-c3cc4ccccc4o3)cc(C(=O)O)c12` [Compound 14, 2-(1-Benzofuran-2-yl)-5-methoxy-8-methylquinoline-4-carboxylic acid], the Activity was “+ (activity<50% of an CFTR amplifier (Compound A)+VX-809 (3 uM) with compound at 10 uM and Compound A at 3 uM)”. For `Cc1ccc(OCc2ccccc2)c2c(C(=O)O)cc(-c3cc4ccccc4o3)nc12` [Compound 15, 2-(1-Benzofuran-2-yl)-5-(benzyloxy)-8-methylquinoline-4-carboxylic acid], the Activity was “++ (activity>50% of CFTR amplifier+VX-809 (3 uM) with compound at 10 uM and Compound A at 3 uM)”. For `Cc1cc(Cl)cc2c(C(=O)O)cc(-c3cc4ccccc4o3)nc12` [Compound 16, 2-(1-Benzofuran-2-yl)-6-chloro-8-methylquinoline-4-carboxylic acid], the Activity was “+ (activity<50% of an CFTR amplifier (Compound A)+VX-809 (3 uM) with compound at 10 uM and Compound A at 3 uM)”. For `Cc1c(-c2cc(C(=O)O)c3cc(Cl)cc(C)c3n2)oc2ccccc12` [Compound 17, 6-Chloro-8-methyl-2-(3-methylbenzofuran-2-yl)quinoline-4-carboxylic acid], the Activity was “++ (activity>50% of CFTR amplifier+VX-809 (3 uM) with compound at 10 uM and Compound A at 3 uM)”. `Cc1cc(C)c2nc(-c3sc4ccccc4c3C)cc(C(=O)O)c2c1` [Compound 18, 6,8-Dimethyl-2-(3-methylbenzo[b]thiophen-2-yl)quinoline-4-carboxylic acid] was tested, and the Activity was “+ (activity<50% of an CFTR amplifier (Compound A)+VX-809 (3 uM) with compound at 10 uM and Compound A at 3 uM)”. With `Cc1c(-c2cc(C(=O)O)c3cc(C(F)(F)F)cc(C)c3n2)oc2ccccc12` [Compound 19, 8-Methyl-2-(3-methyl-1-benzofuran-2-yl)-6-(trifluoromethyl)quinoline-4-carboxylic acid] the Activity was “++ (activity>50% of CFTR amplifier+VX-809 (3 uM) with compound at 10 uM and Compound A at 3 uM)”. In the case of `Cc1c(-c2cc(C(=O)O)c3cc(F)cc(C)c3n2)oc2ccccc12` [Compound 20, 6-Fluoro-8-methyl-2-(3-methylbenzofuran-2-yl)quinoline-4-carboxylic acid], the Activity is reported as “++ (activity>50% of CFTR amplifier+VX-809 (3 uM) with compound at 10 uM and Compound A at 3 uM)”. In the case of `Cc1c(-c2cc(C(=O)O)c3cc(Br)cc(C)c3n2)oc2ccccc12` [Compound 21, 6-bromo-8-methyl-2-(3-methyl-1-benzofuran-2-yl)quinoline-4-carboxylic acid], the Activity is reported as “++ (activity>50% of CFTR amplifier+VX-809 (3 uM) with compound at 10 uM and Compound A at 3 uM)”. `Cc1c(-c2cc(C(=O)O)c3cc(C#N)cc(C)c3n2)oc2ccccc12` [Compound 22, 6-Cyano-8-methyl-2-(3-methyl-1-benzofuran-2-yl)quinoline-4-carboxylic Acid] was tested, and the Activity was “+ (activity<50% of an CFTR amplifier (Compound A)+VX-809 (3 uM) with compound at 10 uM and Compound A at 3 uM)”. `COc1cc(C)c2nc(-c3oc4ccccc4c3C)cc(C(=O)O)c2c1` [Compound 23, 6-Methoxy-8-methyl-2-(3-methyl-1-benzofuran-2-yl)quinoline-4-carboxylic acid] was tested, and the Activity was “++ (activity>50% of CFTR amplifier+VX-809 (3 uM) with compound at 10 uM and Compound A at 3 uM)”. `Cc1c(-c2cc(C(=O)O)c3cc(OCc4ccccc4)cc(C)c3n2)oc2ccccc12` [Compound 24, 6-(Benzyloxy)-8-methyl-2-(3-methyl-1-benzofuran-2-yl)quinoline-4-carboxylic acid] was tested, and the Activity was “++ (activity>50% of CFTR amplifier+VX-809 (3 uM) with compound at 10 uM and Compound A at 3 uM)”. For `Cc1c(-c2cc(C(=O)O)c3cc(OCCO)cc(C)c3n2)oc2ccccc12` [Compound 25, 6-(2-Hydroxyethoxy)-8-methyl-2-(3-methyl-1-benzofuran-2-yl)quinoline-4-carboxylic Acid], the Activity was “+ (activity<50% of an CFTR amplifier (Compound A)+VX-809 (3 uM) with compound at 10 uM and Compound A at 3 uM)”. With `CCc1cc(C)c2nc(-c3oc4ccccc4c3C)cc(C(=O)O)c2c1` [Compound 26, 6-Ethyl-8-methyl-2-(3-methyl-1-benzofuran-2-yl)quinoline-4-carboxylic Acid] the Activity was “++ (activity>50% of CFTR amplifier+VX-809 (3 uM) with compound at 10 uM and Compound A at 3 uM)”. `Cc1c(-c2cc(C(=O)O)c3cc(C(C)(C)C)cc(C)c3n2)oc2ccccc12` [Compound 27, 6-tert-Butyl-8-methyl-2-(3-methyl-1-benzofuran-2-yl)quinoline-4-carboxylic acid] was tested, and the Activity was “++ (activity>50% of CFTR amplifier+VX-809 (3 uM) with compound at 10 uM and Compound A at 3 uM)”.
